Measurements reported in US20070004763A1, “AMINOQUINOLINE AND AMINOQUINAZOLINE KINASE MODULATORS” (priority 2005, published 2007).

Biological target: T1, TrkB (Homo sapiens, UniProt Q16620)
T1 construct: purchased Upstate 14-507M
Assay: Trk B Fluorescence Polarization Kinase Assay
Type: biochemical
Details: 150 uM ATP, 50 nM TrkB; uncertainty ±10%
Procedure: The compounds of the present invention are also specific inhibitors of TrkB. Selection of preferred compounds of Formula I for use as TrkB inhibitors was performed in the following manner. The TrkB assay utilized the fluorescein-labeled phosphopeptide and the anti-phosphotyrosine antibody included in the Panvera Phospho-Tyrosine Kinase Kit (Green) supplied by Invitrogen. When TrkB phosphorylated poly Glu4Tyr, the fluorescein-labeled phosphopeptide was displaced from the anti-phosphotyrosine antibody by the phosphorylated poly Glu4Tyr, thus decreasing the FP value. The TrkB kinase reaction was incubated at room temperature for 30 minutes under the following conditions: 50 nM TrkB (Upstate, catalog #14-507M), 20 ug/mL poly Glu4Tyr, 150 uM ATP, 5 mM MgCl2, 1% compound in DMSO. The kinase reaction was stopped with the addition of EDTA. The fluorescein-labeled phosphopeptide and the anti-phosphotyrosine antibody were added and incubated for 30 minutes at room temperature. Data points were an average of triplicate samples. Inhibition and IC50 data analysis were done with GraphPad Prism using a non-linear regression fit with a multiparamater, sigmoidal dose-response (variable slope) equation.

T1 sequence (Q16620 526-822 limits assumed): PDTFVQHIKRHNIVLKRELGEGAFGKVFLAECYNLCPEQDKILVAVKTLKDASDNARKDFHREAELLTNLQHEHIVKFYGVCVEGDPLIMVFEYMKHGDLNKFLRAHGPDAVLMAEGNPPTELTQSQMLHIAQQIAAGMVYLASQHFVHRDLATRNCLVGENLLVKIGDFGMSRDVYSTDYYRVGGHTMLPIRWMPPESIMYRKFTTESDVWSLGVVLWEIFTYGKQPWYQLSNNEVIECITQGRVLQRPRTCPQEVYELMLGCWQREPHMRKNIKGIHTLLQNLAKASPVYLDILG

Compound	IC50 [µM]
COc1cc2ncnc(N3CCC(NC(=O)Nc4ccc(N5CCCC5)nc4)C3)c2cc1OC (centres unmarked) [Compound 46, 1-[1-(6,7-Dimethoxy-quinazolin-4-yl)-pyrrolidin-3-yl]-3-(6-pyrrolidin-1-yl-pyridin-3-yl)-urea]	24.8
COc1cc2ncnc(N3CCC(NC(=O)Nc4ccc(N5CCCCC5)cc4)C3)c2cc1OC (centres unmarked) [Compound 47, 1-[1-(6,7-Dimethoxy-quinazolin-4-yl)-pyrrolidin-3-yl]-3-(4-piperidin-1-yl-phenyl)-urea]	12
COc1cc2ncnc(N3CCC(NC(=O)Nc4ccc(Cl)cc4)C3)c2cc1OC (centres unmarked) [Compound 48, 1-(4-Chloro-phenyl)-3-[1-(6,7-dimethoxy-quinazolin-4-yl)-pyrrolidin-3-yl]-urea]	16
COc1cc2ncnc(N3CCC(NC(=O)Nc4ccc(Oc5ccccc5)cc4)C3)c2cc1OC (centres unmarked) [Compound 51, 1-[1-(6,7-Dimethoxy-quinazolin-4-yl)-pyrrolidin-3-yl]-3-(4-phenoxy-phenyl)-urea]	2.74
COc1cc2ncnc(N3CCC(NC(=O)Nc4ccc(N(C)C)cc4)C3)c2cc1OC (centres unmarked) [Compound 52, 1-[1-(6,7-Dimethoxy-quinazolin-4-yl)-pyrrolidin-3-yl]-3-(4-dimethylamino-phenyl)-urea]	22.7

Other lines, results leading:

IC50 [µM]	Compound
3.88	COc1cc2ncnc(N3CCC(NC(=O)Nc4ccc(N5CCCC5)cc4)C3)c2cc1OC (centres unmarked) [Compound 49, 1-[1-(6,7-Dimethoxy-quinazolin-4-yl)-pyrrolidin-3-yl]-3-(4-pyrrolidin-1-yl-phenyl)-urea]
> 46	COc1cc2ncnc(N3CCC(NC(=O)Nc4ccc(C5CCCCC5)cc4)C3)c2cc1OC (centres unmarked) [Compound 50, 1-(4-Cyclohexyl-phenyl)-3-[1-(6,7-dimethoxy-quinazolin-4-yl)-pyrrolidin-3-yl]-urea]
4.07	COc1cc2ncnc(N3CCC(NC(=O)Nc4ccc(OC5CCCC5)cc4)C3)c2cc1OC (centres unmarked) [Compound 53, 1-(4-Cyclopentyloxy-phenyl)-3-[1-(6,7-dimethoxy-quinazolin-4-yl)-pyrrolidin-3-yl]-urea]
44.6	COc1cc2ncnc(N3CCC(OC(=O)Nc4ccc(OC5CCCC5)cc4)C3)c2cc1OC (centres unmarked) [Compound 54, (4-Cyclopentyloxy-phenyl)-carbamic acid 1-(6,7-dimethoxy-quinazolin-4-yl)-pyrrolidin-3-yl ester]
> 46	COc1cc2ncnc(N3CCC(OC(=O)Nc4ccc(OC5CCCC5)cc4)CC3)c2cc1OC [Compound 55, (4-Cyclopentyloxy-phenyl)-carbamic acid 1-(6,7-dimethoxy-quinazolin-4-yl)-piperidin-4-yl ester]
6.58	COc1cc2ncnc(N3CCC(COC(=O)Nc4ccc(OC5CCCC5)cc4)CC3)c2cc1OC [Compound 56, (4-Cyclopentyloxy-phenyl)-carbamic acid 1-(6,7-dimethoxy-quinazolin-4-yl)-piperidin-4-ylmethyl ester]
